One series concerns HCT-15. The experiment in a line: Antiproliferative activity against human HCT-15 cells incubated for 72 hrs by MTT assay. The series is classed as functional, cell-based. Particulars: HCT-15, 72 h.
For another series, the system named is HCT-8. In words: Antiproliferative activity against human HCT-8 cells incubated for 72 hrs by MTT assay. The series is classed as functional, cell-based. Particulars: HCT-8, 72 h. In general terms: Tetrazolium dyes change colour on reduction, which living cells bring about.
Series [1] relates to HT-29. The experiment in a line: Inhibition of colony formation in human HT-29 cells measured after 14 days by crystal violet staining based assay. It is filed as functional, cell-based. Particulars: dose 0.25-2 µM, time 14.0 day.
In series [2] the test system is HT-29. The experiment in a line: Downregulation of c-Myc expression in human […] cells incubated for 24 hrs by Western blot analysis. It is filed as functional, cell-based. Particulars: dose 2.5-10 µM. On the technique in general: A western blot detects proteins with antibodies after separation by electrophoresis.
For a further series, the species on record is Homo sapiens. The experiment in a line: Inhibition of human Myc (353 to 439 residues)/Max(S) (151 residues) expressed in Escherichia coli BL21(DE3) binding to biotinylated double-stranded DNA oligonucleotide 5'-CACCCGGTCACTGGCCTACAC-3' (unknown origin) preincubated for 90 mins followed by oligonucleotide addition for 25 mins by EMSA. Particulars: time 115.0 min. (Mobility shift assays separate free from complexed probe on a gel.)

The subject of series [3] is HT-29. The experiment in a line: Antitumor activity against human HT-29 cells xenografted in BALB/c mouse assessed as tumor growth inhibition at 40 mg/kg, ip administered daily for 3 weeks by caliper method. Particulars: HT-29, 504 h, read-out: TGI. The series is classed as functional.
In series [4] the test system is HT-29. In words: cells. Particulars: Homo sapiens, HT-29, 72 h.
Description: Antiproliferative activity against human HT-29 cells incubated for 72 hrs by MTT assay
Another series has as its system HCT-116. In words: cells. Particulars: Homo sapiens, HCT-116, 72 h.
Series [5] in a line: Inhibition of c-Myc/Max binding to DNA (unknown origin) by fluorescence polarization assay. On the set-up: species or system Homo sapiens.
In a further series the target is c-Myc/c-Max (Homo sapiens, UniProt P01106+P61244). In words: Inhibition of c-Myc to Max protein dimerization (unknown origin) by electrophoretic mobility shift assay.
Series [6] can be described thus: Toxicity in BALB/c mouse xenografted with human HT-29 cells assessed as body weight loss at 40 mg/kg, ip measured after 12 days. It is filed as organism-based. Particulars: in vivo, 288 h, time 12 day.
Series [7] is described as follows: Toxicity in BALB/c mouse xenografted with human HT-29 cells assessed as heart damage at 40 mg/kg, ip measured after 21 days by H and E staining based assay. It is filed as organism-based. Particulars: in vivo, 504 h, time 21 day.
A short description of series [8]: Toxicity in BALB/c mouse xenografted with human HT-29 cells assessed as liver damage at 40 mg/kg, ip measured after 21 days by H and E staining based assay. Particulars: in vivo, 504 h, time 21 day. The series is classed as organism-based.
Series [9] can be described thus: Toxicity in BALB/c mouse xenografted with human HT-29 cells assessed as lung damage at 40 mg/kg, ip measured after 21 days by H and E staining based assay. The series is classed as organism-based. Particulars: in vivo, 504 h, time 21 day.
A short description of series [10]: Toxicity in BALB/c mouse xenografted with human HT-29 cells assessed as kidney damage at 40 mg/kg, ip measured after 21 days by H and E staining based assay. The series is classed as organism-based. Particulars: in vivo, 504 h, time 21 day.

Chain of c-Myc/c-Max (P01106 whole entry): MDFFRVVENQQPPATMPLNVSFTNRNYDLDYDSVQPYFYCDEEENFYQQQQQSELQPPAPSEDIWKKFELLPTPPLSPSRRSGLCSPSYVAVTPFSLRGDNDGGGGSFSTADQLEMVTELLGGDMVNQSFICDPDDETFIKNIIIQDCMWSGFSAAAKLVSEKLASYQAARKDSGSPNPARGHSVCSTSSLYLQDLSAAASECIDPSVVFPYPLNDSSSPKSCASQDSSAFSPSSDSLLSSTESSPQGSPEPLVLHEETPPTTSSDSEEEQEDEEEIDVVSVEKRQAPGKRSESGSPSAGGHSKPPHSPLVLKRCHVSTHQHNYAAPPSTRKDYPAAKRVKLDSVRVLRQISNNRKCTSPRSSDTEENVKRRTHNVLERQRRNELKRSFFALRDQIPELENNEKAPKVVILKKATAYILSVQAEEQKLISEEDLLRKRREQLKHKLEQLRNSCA
Chain of c-Myc/c-Max (P61244 whole entry): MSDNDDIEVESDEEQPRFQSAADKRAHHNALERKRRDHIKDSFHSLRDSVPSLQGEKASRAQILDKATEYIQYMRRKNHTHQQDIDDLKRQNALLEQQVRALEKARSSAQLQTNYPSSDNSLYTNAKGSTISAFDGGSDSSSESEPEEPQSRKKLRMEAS
Description for HCT-116: Antiproliferative activity against human HCT-116 cells incubated for 72 hrs by MTT assay

What is called IC50 is the point on the concentration scale where inhibition reaches its midpoint. As for `COc1ccc(CCNCc2c(OC)cc(Oc3ccc(Nc4ccccc4)cc3)cc2OC)cc1`, the IC50 came to 3.15 µM with HCT-15, 4.81 µM in the series on HCT-8, 1.36 µM in the series with HT-29 [4] and 1.95 µM in the series on HCT-116. The inhibition result in the series on HT-29 [1] and in the series listed under Homo sapiens was “Dose-Dependent Effect” throughout. The Activity entry in the series with HT-29 [2] was “Dose-Dependent Effect”. Also, the inhibition in vivo at 40 mg/kg in the series on HT-29 [3] amounted to 55.8%.
In series [5], `C=C(OCC)c1cnn(-c2ccccc2)c1NC(=O)c1cc2nc(-c3ccco3)cc(C(F)(F)Cl)n2n1` came in with an IC50 of 40 µM.
Take `O=C(O)c1ccc(Nc2ccc([N+](=O)[O-])c3nonc23)cc1`: the IC50 on c-Myc/c-Max was found to be 33 µM.
Consider `O=c1[nH]cc(F)c(=O)[nH]1` [FLUOROURACIL], for which the IC50 with HCT-15 was 8.23 µM; in the series with HCT-8 it was over 20 µM; with HT-29 [4] it was 9.19 µM; with HCT-116, 6.5 µM. Also, the inhibition in vivo at 40 mg/kg in the series on HT-29 [3] turned out to be 50.2%. For the same molecule, the Activity result in series [6], in series [7], in series [8], in series [9] and in [10] was “Toxic” in each case.

The record behind these values is ChEMBL document CHEMBL5352446, “Synthesis and biological evaluation of a novel c-Myc inhibitor against colorectal cancer via blocking c-Myc/Max heterodimerization and disturbing its DNA binding” (Eur J Med Chem, 2022).
